Patent US11965894B2, “Method of diagnosis of drug induced liver injury” (BIOPREDICTIVE, priority 2017, dated 2024)
Values belong to the compound of their own block, whether it stands above or below them.

Experiments:
[1] = Serum miR-122 by LNA-based relative quantitative PCR in DILI cases; type: in vivo, human
Method: Total RNA, including miRNA was extracted from 200 μl of serum, using a commercial column-based system (Exiqon, Denmark) following the manufacturer's instructions. RNA synthetic control templates (Exiqon, Denmark) were introduced to provide controls for the quality of the RNA isolation. Serum levels of miR-122 and nine endogenous miRNAs as potential candidates for reference miRNAs were assayed using the Locked Nucleic Acid (LNA™)-based miRNA relative quantitative PCR with a SYBR® Green detection. cDNA synthesis and real time PCR were performed using the miRCURY LNA™ Universal RT cDNA Synthesis Kit (Exiqon, Denmark) and miRCURY LNA™ Universal RT microRNA PCR system (Exiqon), respectively. Two additional RNA spike-ins were also introduced to provide controls for the cDNA synthesis reaction and the PCR. Quantitative PCR was done on the LightCycler® 480 (Roche Applied Science) according to the manufacturer's instructions. The amplification curves were analyzed using the Roche LC software, both for the determination of cycle threshold (Ct) and for melting curve analysis. Ct values were then processed using the analysis software GenEx® (MultiD Analysis AB). […] Ct values for miR-122 were normalized with Ct value of miR-23a-3p. Levels of serum miR-122 were expressed in relative quantities calculated by the equation 2^−ΔCt.

[2] = FibroTest and ActiTest scores in DILI cases; type: in vivo, human; conditions: for FibroTest: single followed DILI case
Method: The Fibrotest® combines five markers: alpha2-macroglobulin, haptoglobin, apolipoprotein A2, total bilirubin and gamma-glutamyl transpeptidase (GGT), and adjusts with sex and age. […] It is performed in vitro on a biological sample (blood or serum) that has been harvested from a patient.
The ActiTest is calculated using an original combination of six highly concentrated biochemical markers, which are easy to assess. The ActiTest offers a non invasive alternative for measuring necro inflammatory activity in patients with chronic hepatitis C or B. The ActiTest combines alpha2-macroglobulin, haptoglobin, apolipoprotein A1, total bilirubin, GGT, and ALT, parameters adjusted for patient's age and gender.

[3] = healthy volunteers receiving the drug, ref [13]; cited from earlier work
[4] = in vivo
Method: Measures of biochemical markers were performed accordingly to the art, and analyses of ActiTest® and FibroTest® were made as described in the art and in WO 2002/016949.
Comparisons between medians (95% confidence interval [CI]) used the Mann-Whitney test with Bonferroni correction, and the Tukey-Kramer multiple comparison procedure for analyses of variance of the three repeated measures. Correlation between test values was estimated using the Pearson coefficient, expressed with a 95% CI; according to the number of comparisons, only a P value <0.01 was considered significant. NCSS-9 software was used.

[5] = DILI cases attributed to the drug, at inclusion

SMILES: CC(=O)Nc1ccc(O)cc1 [APAP, acetaminophen]
miR-122 compared with MTX cases ([1]; DILI cases, at baseline): significantly lower
miR-122 (lowest) ([1]; single DILI case with severe malnutrition): −0.8
ActiTest median [2, 5]: 0.99
FibroTest ([2]; at 8-12 weeks): 0.53
FibroTest ([2]; one month later): 0.47
ApoA1 regulation in ALT responders compared with ALT non-responders [3]: three-fold down-regulation

ApoA1 compared with normal ranges observed with methotrexate and others [4]: dramatic decrease
ApoA1 evolution compared with HAPTO [4]: much quicker normalization
ApoA1 median [4]: 0.27 g/L
BILI compared with normal ranges observed with methotrexate and others [4]: dramatic increase
BILI median [4]: 335 µmol/L
HAPTO compared with normal ranges observed with methotrexate and others [4]: dramatic decrease
HAPTO median [4]: 0.10 g/L
SMILES: CCOC(=O)Nc1ccc(NCc2ccc(F)cc2)nc1N [flupirtine]
FibroTest median [2, 5]: 0.99

GGT dynamics compared with other drugs [4]: no decrease
SMILES: CN(Cc1cnc2nc(N)nc(N)c2n1)c1ccc(C(=O)N[C@@H](CCC(=O)O)C(=O)O)cc1 [methotrexate]
miR-122 median ([1]; serum, DILI cases attributed to the drug, at inclusion, relative quantities normalized with miR-23a-3p): 7.54
FibroTest ([2]; 877 days later): 0.52
FibroTest ([2]; at 8-12 weeks): 0.51

GGT median [4]: 678 IU/L
SMILES: CCN1CCN(C(=O)N[C@@H](C(=O)N[C@@H]2C(=O)N3[C@@H]2SC(C)(C)[C@@H]3C(=O)O)c2ccccc2)C(=O)C1=O [piperacillin, piperacillin-tazobactam]
